Measurements reported in patent publication US5416209A, “5,6-dihydro-dibenz[b,e]azepine-6,11-dione-11-oximes” (Bayer Aktiengesellschaft, priority 1991, dated 1995).

The compounds below were run on HIV virus (HIV-infected normal human blood lymphocytes (PBLs) or alternatively H9 cells) (assay: HIV infection in cell culture (inhibition of virus-induced syncytia)). Conditions: Human immunodeficiency virus 1, 72 h, concentration at which 50% of the virus-induced syncytia are suppressed, day 3 to 6 after infection, 37° C.
Format: cell-based
Protocol: HIV infection in cell culture
The HIV test was carried out with slight modifications according to the method of Pauwels et al. [cf. Journal of Virological Methods 20, (1988), 309-321].
Normal human blood lymphocytes (PBLs) were concentrated by means of Ficoll-Hypaque and stimulated with phytohaemagglutinin (90 μg/ml) and interleukin-2 (40 U/ml) in RPMI 1640 and 20% foetal calf serum. For infection with the infectious HIV, PBLs were pelleted and the cell pellet was then suspended in 1 ml of HIV virus adsorption solution and incubated for 1 hour at 37° C.
Alternatively, HIV-susceptible H9 cells were employed instead of normal human blood lymphocytes for testing the antiviral effects of the compounds according to the invention.
The virus adsorption solution was centrifuged and the infected cell pellet was taken up in growth medium so that a concentration of 1×10^5 cells per ml was established. The cells infected in this way were pipetted into the wells of 96-well microtiter plates to give 1×10^4 cells/well.
The first vertical row of the microtiter plate contained only growth medium and cells which had not been infected, but otherwise treated exactly as described above (cell control). The second vertical row of the microtiter plate contained only HIV-infected cells (virus control) in growth medium. The other wells contained the compounds according to the invention in differing concentrations, starting from the wells of the 3rd vertical row of the microtiter plate, from which the test substances were diluted 2^10 times in 2-fold steps.
The test batches were incubated at 37° C. until, in the untreated virus control, the syncytia formation typical of HIV occurred (between day 3 and 6 after infection), which was then microscopically assessed. Under these test conditions, in the untreated virus control about 20-50 syncytia resulted, while the untreated cell control contained no syncytia.
The IC50 values were determined as the concentration of the treated and infected cells at which 50% (about 10-20 syncytia) of the virus-induced syncytia were suppressed by treatment with the compound according to the invention.

Row | SMILES | IC50
1 | Cc1ccnc2c1NC(=O)c1cccnc1N2C1CC1 [BIRG 587, reference compound] | 90 nM
2 | CCO/N=c1/c2cc(Cl)ccc2[nH]c(=O)c2ccccc12 [Example 4, (E) -2-Chloro-11-ethoxyimino-6-oxo-5,6-dihydro-11-H-dibenz [b,e]azepine] | 60 nM
3 | CON=c1c2cc(Cl)ccc2[nH]c(=O)c2ccccc12 [Example 6] | 1500 nM
4 | CCO/N=c1\c2cc(Cl)ccc2[nH]c(=O)c2ccccc12 [Example 8] | 500 nM
5 | O=c1[nH]c2ccc(Cl)cc2c(=NOCc2ccccc2)c2ccccc12 [Example 17] | 700 nM
6 | O=c1[nH]c2ccc(Cl)cc2c(=NOCc2c(F)c(F)c(F)c(F)c2F)c2ccccc12 [Example 18] | 1000 nM
7 | COC(=O)CON=c1c2cc(Cl)ccc2[nH]c(=O)c2ccccc12 [Example 24] | 2300 nM
8 | O=c1[nH]c2ccc(Cl)cc2c(=NOC2CCCCO2)c2ccccc12 (centres unmarked) [Example 31] | 250 nM
